Results on 22 compounds are retold here after ChEMBL document CHEMBL3864145, “Synthesis and biological evaluation of crown ether acyl derivatives” (Bioorg Med Chem Lett, 2016).

The nature of data set [1]: Cytotoxicity against human HBL100 cells assessed as growth inhibition after 48 hrs by SRB assay. The settings on record: HBL-100, 48 h. It counts as functional. In general terms: Sulforhodamine B stains cellular protein and so reports cell mass.
Data set [2] is described as follows: Cytotoxicity against human HeLa cells assessed as growth inhibition after 48 hrs by SRB assay. The class given is functional.
Data set [3] is described as follows: Cytotoxicity against human SW1573 cells assessed as growth inhibition after 48 hrs by SRB assay. The settings on record: SW1573, 48 h. The class given is functional.
Data set [4] in a line: Cytotoxicity against human WiDr cells assessed as growth inhibition after 48 hrs by SRB assay. It counts as functional.
A short description of data set [5]: Cytotoxicity against telomerase-immortalized human BJ cells assessed as growth inhibition after 48 hrs by SRB assay. It counts as toxicity, cell-based.
In data set [6] the test system is Candida albicans. The data set is described as follows: Antifungal activity against Candida albicans ATCC 90028 at 50 uM after 48 hrs by UV/Vis spectrophotometer relative to control. It counts as functional. The note with it: ATCC 90028, 48 h.
In the next data set the test system is Enterococcus faecalis. Briefly: Antibacterial activity against Enterococcus faecalis ATCC 29212 at 50 uM after 24 hrs by UV/Vis spectrophotometer relative to control. The settings on record: ATCC 29212, 24 h. It counts as functional.
In data set [7] the test system is Staphylococcus aureus. Briefly: Antibacterial activity against Staphylococcus aureus ATCC 25923 at 50 uM after 24 hrs by UV/Vis spectrophotometer relative to control. The class given is functional. The note with it: ATCC 25923, 24 h.
The next data set concerns Escherichia coli. Briefly: Antibacterial activity against Escherichia coli ATCC 25922 at 50 uM after 24 hrs by UV/Vis spectrophotometer relative to control. The class given is functional. The note with it: ATCC 25922, 24 h.
In data set [8] the test system is Candida albicans. The data set is described as follows: Antifungal activity against Candida albicans ATCC 90028 by broth microdilution method. It counts as functional.
Data set [9] relates to Staphylococcus aureus. Briefly: Antibacterial activity against Staphylococcus aureus ATCC 25923 by broth microdilution method. The class given is functional. (Dilution methods test growth across graded concentrations, often in twofold steps.)
Data set [10] in a line: Ratio of MIC50 for Staphylococcus aureus ATCC 25923 to GI50 for human HBL100 cells. The class given is functional, HBL-100.
The nature of data set [11]: Ratio of MIC50 for Staphylococcus aureus ATCC 25923 to GI50 for human HeLa cells. It counts as functional.
Data set [12] in a line: Ratio of MIC50 for Staphylococcus aureus ATCC 25923 to GI50 for human SW1573 cells. The class given is functional.
Data set [13] is described as follows: Ratio of MIC50 for Staphylococcus aureus ATCC 25923 to GI50 for human WiDr cells. It counts as functional.

≈ marks a conversion by molar mass, not a printed value.

For the compound `O=C(CCc1ccc2ccc3cccc4ccc1c2c34)OCC1COCCOCCOCCOCCOCCO1` (stereo unspecified), the GI50 (as a rule, the concentration at which growth is held to half of that of the control) in [1] stood at 21 µM; in data set [2] it was 17 µM; in [3], 18 µM; in data set [4] it was 19 µM. Moreover, the GI50 at 48 h in [5] was 19 µM. Also, the inhibition (usually the change of the read-out against control, counted positive when it falls) at 50 µM in the data set on Candida albicans [6] came to 101%; in the data set with Enterococcus faecalis it was 0%; in the data set with Staphylococcus aureus [7], 99%; in the data set on Escherichia coli it was 0%. Further, the MIC50 (commonly an inhibitory concentration at the 50% level, which refers to growth in some studies and to a panel of isolates in others) in the data set on Candida albicans [8] was found to be 20.1 µg/mL (≈ 36.5 µM); in the data set on Staphylococcus aureus [9], 7.2 µM. Besides, the MIC90 (commonly the lowest concentration that inhibits either 90% of growth or 90% of the strains tested, depending on the study) was 42 µM against Candida albicans [8] and 8.3 µM with Staphylococcus aureus [9].
As to `CC(C)=CC1C(C(=O)OCC2COCCOCCOCCOCCOCCO2)C1(C)C` (stereo unspecified), the GI50 amounted to 40 µM in [1], 63 µM in data set [2], 54 µM in data set [3] and 56 µM in data set [4]. For the same compound, the GI50 at 48 h in [5] is more than 100 µM. The inhibition at 50 µM in the data set on Candida albicans [6], in the data set on Enterococcus faecalis, in the data set on Staphylococcus aureus [7] and with Escherichia coli was 0% each time.
With `CC1(C(=O)OCC2COCCOCCOCCOCCOCCO2)c2ccccc2-c2ccccc21` (stereo unspecified), the GI50 in [1] was 11 µM; in data set [2] it was 12 µM; in data set [3], 8.8 µM; in data set [4], 12 µM. Further, the GI50 at 48 h in data set [5] was determined as 18 µM. For the same compound, the inhibition at 50 µM in the data set on Candida albicans [6] was found to be 0%; in the data set on Enterococcus faecalis it was 0%; in the data set with Staphylococcus aureus [7], 0%; in the data set with Escherichia coli, 0.1%.
`O=C(CCCCC1CCCCC1)OCC1COCCOCCOCCO1` (stereo unspecified): the GI50 in [1], in data set [2], in [3] and in [4] was more than 100 µM throughout. For the same compound, the inhibition at 50 µM was determined as 0% in the data set with Candida albicans [6], 0% in the data set with Enterococcus faecalis, 0% with Staphylococcus aureus [7] and 4.9% with Escherichia coli.
As for `O=C(OCC1COCCOCCOCCOCCOCCO1)c1cccc(-c2ccc(Br)cc2)c1` (stereo unspecified), the GI50 in data set [1] was determined as 6.4 µM; in data set [2], 7.8 µM; in data set [3], 4.4 µM; in data set [4], 6.2 µM. In addition, the GI50 at 48 h in [5] came to 8.2 µM. Moreover, the inhibition at 50 µM amounted to 1% with Candida albicans [6], 0% in the data set with Enterococcus faecalis, 98% with Staphylococcus aureus [7] and 6.5% in the data set with Escherichia coli. The compound further returned an MIC50 against Staphylococcus aureus [9] of 6.8 µg/mL. This compound registered an MIC90 with Staphylococcus aureus [9] of 25 µM.
As to `O=C(CCCCCCCCCCOc1ccccc1)OCC1COCCOCCOCCOCCOCCO1` (stereo unspecified), the GI50 is 20 µM in data set [1], 41 µM in data set [2], 24 µM in data set [3] and 66 µM in data set [4]. Besides, the 50% growth inhibitory concentration (GI50) at 48 h in data set [5] came out at 24 µM. Moreover, the inhibition at 50 µM in the data set on Candida albicans [6] worked out at 101%; in the data set on Enterococcus faecalis it was 2.1%; in the data set with Staphylococcus aureus [7], 29%; with Escherichia coli, 0%. For the same compound, the MIC90 with Candida albicans [8] was found to be 36 µM.
Consider `O=C(CCCc1cc2ccccc2[nH]1)OCC1COCCOCCOCCOCCOCCO1` (stereo unspecified), for which the GI50 in data set [1], in data set [2], in [3] and in [4] was more than 100 µM throughout.
With `O=C(CCCCCc1ccccc1)OCC1COCCOCCOCCOCCOCCO1` (stereo unspecified), the GI50 was 64 µM in data set [1], 79 µM in [2], 78 µM in [3] and more than 100 µM in data set [4]. For the same compound, the inhibition at 50 µM in the data set on Candida albicans [6] was 11%; in the data set on Enterococcus faecalis, 0%; in the data set with Staphylococcus aureus [7], 0%; in the data set on Escherichia coli, 5.8%.
As to `O=C(CCCCC1CCCCC1)OCC1COCCOCCOCCOCCOCCO1` (stereo unspecified), the GI50 worked out at 72 µM in data set [1], 71 µM in [2], 51 µM in data set [3] and 33 µM in data set [4]. In addition, the inhibition at 50 µM is 0% in the data set with Candida albicans [6], 0% with Enterococcus faecalis, 61% with Staphylococcus aureus [7] and 0% in the data set with Escherichia coli.
Regarding `O=C(/C=C/c1ccccc1)OCC1COCCOCCOCCOCCOCCO1` (stereo unspecified), the GI50 in data set [1] was 57 µM; in data set [2], 48 µM; in [3], 48 µM; in data set [4], more than 100 µM. The inhibition at 50 µM in the data set with Candida albicans [6] stood at 36.7%; in the data set on Enterococcus faecalis it was 3.3%; with Staphylococcus aureus [7], 3.4%; in the data set on Escherichia coli, 5.9%.
As to `CC/C=C/CC(=O)OCC1COCCOCCOCCOCCOCCO1` (stereo unspecified), the GI50 in data set [1], in data set [2], in [3] and in data set [4] was more than 100 µM each time. Further, the inhibition at 50 µM in the data set on Candida albicans [6] is 9.4%; with Enterococcus faecalis, 4.7%; in the data set on Staphylococcus aureus [7], 6.9%; with Escherichia coli, 4.3%.
On to `O=C(CCCCC1CCCCC1)OCC1COCCOCCOCCOCCO1` (stereo unspecified), for which the concentration for 50% growth inhibition (GI50) in data set [1], in data set [2], in data set [3] and in data set [4] was more than 100 µM throughout. Also, the inhibition at 50 µM with Candida albicans [6] amounted to 0%; with Enterococcus faecalis it was 0%; with Staphylococcus aureus [7] it was 0%; with Escherichia coli, 3.1%.
Turning to `O=C(OCC1COCCOCCOCCOCCOCCO1)c1c2ccccc2cc2ccccc12` (stereo unspecified), the GI50 in data set [1] came to 5 µM; in [2] it was 3.7 µM; in [3] it was 3.8 µM; in [4] it was 5.6 µM. In addition, the concentration for 50% growth inhibition (GI50) at 48 h in [5] came out at 5.4 µM. For the same compound, the inhibition at 50 µM with Candida albicans [6] amounted to 4.3%; with Enterococcus faecalis it was 0%; in the data set with Staphylococcus aureus [7], 98%; with Escherichia coli, 7.8%. Moreover, the MIC50 against Staphylococcus aureus [9] came out at 11.1 µg/mL. Also, the MIC90 in the data set with Staphylococcus aureus [9] was found to be 50 µM. Also, the Ratio in data set [10], in [11], in data set [12] and in data set [13] was 4 throughout.
With `O=C(OCC1COCCOCCOCCOCCOCCO1)c1cccnc1` (stereo unspecified), the GI50 in data set [1], in [2], in data set [3] and in data set [4] was more than 100 µM throughout. Besides, the inhibition at 50 µM in the data set on Candida albicans [6] came to 24%; in the data set with Enterococcus faecalis it was 6.8%; in the data set with Staphylococcus aureus [7], 0%; in the data set with Escherichia coli it was 6.2%.
As to `O=C(CCCCOc1ccccc1)OCC1COCCOCCOCCOCCOCCO1` (stereo unspecified), the GI50 in data set [1], in data set [2], in data set [3] and in data set [4] was more than 100 µM each time. Besides, the inhibition at 50 µM in the data set on Candida albicans [6] was found to be 1.6%; in the data set on Enterococcus faecalis, 3.5%; in the data set with Staphylococcus aureus [7] it was 0%; in the data set on Escherichia coli, 8.1%.
As to `O=C(Cc1cccc(OCc2ccccc2)c1)OCC1COCCOCCOCCOCCOCCO1` (stereo unspecified), the concentration for 50% growth inhibition (GI50) amounted to 29 µM in [1], 35 µM in data set [2], 36 µM in [3] and 24 µM in data set [4]. Moreover, in [5], the GI50 at 48 h was determined as 22 µM. Besides, the inhibition at 50 µM in the data set with Candida albicans [6] came to 0%; in the data set with Enterococcus faecalis, 0%; in the data set with Staphylococcus aureus [7] it was 0%; with Escherichia coli it was 3.6%.
On to `CC(=O)OCC1COCCOCCOCCOCCOCCO1` (stereo unspecified), for which the GI50 in [1], in [2], in data set [3] and in data set [4] was more than 100 µM throughout.
As for `O=C(CCCCc1ccccc1)OCC1COCCOCCOCCOCCOCCO1` (stereo unspecified), the GI50 in data set [1] is 69 µM; in data set [2], 52 µM; in data set [3], more than 100 µM; in data set [4], more than 100 µM. The inhibition at 50 µM came to 5.5% with Candida albicans [6], 0.3% in the data set with Enterococcus faecalis, 0% with Staphylococcus aureus [7] and 5% in the data set with Escherichia coli.
In the case of `COc1ccc(/C=C/C(=O)OCC2COCCOCCOCCOCCOCCO2)cc1` (stereo unspecified), the concentration for 50% growth inhibition (GI50) stood at 50 µM in data set [1], 56 µM in data set [2], 54 µM in [3] and 56 µM in [4]. Further, in [5], the GI50 at 48 h was more than 100 µM. The inhibition at 50 µM turned out to be 0% in the data set on Candida albicans [6], 0% in the data set on Enterococcus faecalis, 0% in the data set on Staphylococcus aureus [7] and 7.3% with Escherichia coli.
In the data set with Candida albicans [8], `C[C@@H]1[C@H](O)[C@@H](C)/C=C/C=C/C=C/C=C/C=C/C=C/C=C/[C@H](O[C@@H]2O[C@H](C)[C@@H](O)[C@H](N)[C@@H]2O)C[C@@H]2O[C@](O)(C[C@@H](O)C[C@@H](O)[C@H](O)CC[C@@H](O)C[C@@H](O)CC(=O)O[C@H]1C)C[C@H](O)[C@H]2C(=O)O` [AMPHOTERICIN B] had an MIC90 of 0.5 µg/mL.
`O=C(O)c1cn(C2CC2)c2cc(N3CCNCC3)c(F)cc2c1=O` [CIPROFLOXACIN]: the MIC90 with Staphylococcus aureus [9] amounted to 0.5 µg/mL.
Consider `COc1cc([C@@H]2c3cc4c(cc3[C@@H](O[C@@H]3O[C@@H]5CO[C@@H](C)O[C@H]5[C@H](O)[C@H]3O)[C@H]3COC(=O)[C@H]23)OCO4)cc(OC)c1O` [ETOPOSIDE], for which the GI50 in data set [1] worked out at 1.4 µM; in data set [2], 3.3 µM; in data set [3], 15 µM; in [4], 23 µM.
